Results: publication PMC4482662, “Engineered Trehalose Permeable to Mammalian Cells” (PLoS ONE, 2015)

Tests used:
rat hepatocytes [1] = test: Mitochondrial membrane potential (JC-1, Mito-Tracker Red) after loading; assay type: cell-based; settings: after 6 h incubation
Protocol: To determine mitochondrial function after incubation with acetylated trehalose, we used JC-1 for membrane potential and Mito-Tracker Red CMRox for imaging following the manufacturers’ protocols. The hepatocytes were seeded in fibronectin-coated plates and were allowed to attach and spread for 24–48 h. Then, the cells were incubated with 30 mM 6-O-Ac-Tre and 25 mM HEPES for 6 h, after which the wells were washed with excess medium and the cells incubated for 24 h before the assay. Immediately upon the start of incubation with staining agents, the plates were placed in the fluorescent plate reader and the fluorescence was read for 30 min at 579/599 nm excitation/emission wavelengths for Mito-Tracker and at 485 nm excitation and 530/590 nm emission wavelengths for the green and red channels respectively of JC-1. For imaging mitochondria, the hepatocytes were cultured on collagen-coated glass cover slips for 48 h, and were stained with Mito-Tracker Red 24 h after the incubation with 6-O-Ac-Tre for 6 h. The control group was prepared without incubation with 6-O-Ac-Tre. The cover slips were then washed with excess PBS and imaged using a Zeiss microscope with fluorescence capability.

rat hepatocytes [2] = test: Uptake and intracellular deacetylation of acetylated trehalose in cultured rat hepatocytes (trehalase assay kit, total after NaOH hydrolysis); assay type: in vitro ADME; settings: 30 mM incubation
Text: Rat hepatocytes were provided by the Cell Resource Center (CRC) at the Center for Engineering in Medicine at Massachusetts General Hospital. Briefly, hepatocytes were obtained from female Lewis rats using a two-step collagenase protocol. Two or three month old rat (Charles River Laboratories, Wilmington, MA) weighing 180–200 g were used as hepatocyte source and were maintained in accordance with National Research Council guidelines. Experimental protocols in practice at CRC for the use of hepatocytes in this study were approved by the subcommittee on Research Animal Care, Massachusetts General Hospital. Using a modification of the two-step collagenase perfusion method, which involved purification of cell suspension by means of centrifugation over Percoll, approximately 200 million hepatocytes per rat liver with 85–95% viability were routinely obtained, as evaluated by Trypan blue exclusion. Hepatocytes were kept on ice and were plated within 1 h of isolation.
For trehalose loading experiments, 6-well plates were treated with 25μg/mL fibronectin for 1 h prior to plating the hepatocytes, at which point the wells were washed with PBS and the hepatocytes were seeded at 1.2–1.3×10^6 cells/well. The cells were allowed 24–48 h to attach and spread in a 10% (v/v) CO2 incubator at 37°C before they were incubated with acetylated variants of trehalose. […]
The cell lysates were analyzed for protein content using a Bradford Commassie assay for cell count approximation. Trehalose content of cell lysates were measured using a trehalose assay kit following the manufacturer’s protocol. […] This solution was analyzed for total trehalose content against the trehalose controls prepared in a similar fashion, and the concentration was adjusted for the dilution due to addition of NaOH and HCl. To estimate the number of cells, protein content of the cell lysate was assessed using the Pierce^TM Coomassie Plus (Bradford) assay (Life Technologies, Grand Island, NY, USA). […]

rat hepatocytes [3] = test: Overall morphology of hepatocytes after loading; assay type: cell-based; settings: post-loading incubation after 15 and 30 mM for 6 h
Protocol: We next examined the long-term functional activity of hepatocytes after incubation with 6-O-Ac-Tre. The cells were incubated for 14 days following the incubation with 15 and 30 mM 6-O-Ac-Tre for 6 h (Fig 5). During the post-loading incubation, the cells were examined for overall morphology, viability and the albumin secretion. Mitochondrial membrane potential (ΔΨ) was also examined.

rat hepatocytes [4] = test: Hepatocyte albumin secretion ELISA, 14-day follow-up after loading; assay type: cell-based; design: dose or concentration left out as unconfirmed
Protocol: The hepatocytes were seeded at 0.6×10^6 cell/well on the collagen gel in 12-well plates. Collagen gel was formed by the addition of 200 μL of collagen solution to each well and incubation for 20 min at 37°C. The cells were allowed to attach and spread at least 24 h before the experiments. […] After the collagen solution solidified, 0.5 mL of medium was added per well and the plate was incubated at 10% CO2 and 37°C. Every 24 h for 14 days, the medium from each well was separately collected and 0.5 mL fresh medium was added to each well. The collected samples were stored at -80°C freezer until analyzed.
Albumin secretion was assayed following an ELISA protocol developed in-house. Briefly, 96-well high-binding ELISA plates were coated with 5 μg/well rat albumin in 100 μL PBS and incubated overnight at 4 °C. Coated plates were washed with PBS-Tween (0.05%) at least 3 times and 50 μL of the media or standards were added to wells in the plate. Albumin antibody was diluted 1:10000 in PBS-tween and 50 μL was added to each well and incubated overnight at 4 °C. At the end of incubation, the plates were washed with PBS-0.05% Tween at least 3 times. A substrate solution of o-phenylenediamine dihydro-chloride (OPD, 400 μg/mL) and 4 μM H2O2 was prepared in a citric acid buffer. […] Reaction was stopped by addition of 50 μL 8N sulfuric acid and the difference in absorbance was measured at 490 nm.

CC(=O)OC1C(CO)OC(OC2OC(CO)C(OC(C)=O)C(OC(C)=O)C2OC(C)=O)C(OC(C)=O)C1OC(C)=O (stereo not shown) [6-O-Ac-Tre, trehalose hexaacetate]
mitochondrial ΔΨ versus control (Mito-Tracker Red, JC-1 ratio) (rat hepatocytes [1]): no significant difference | uptake compared with trehalose, 2-Act-Tre and 4-Act-Tre (rat hepatocytes [2]): at least one order of magnitude higher | overall morphology and lipid droplet formation versus control (rat hepatocytes [3]): minimal changes | albumin secretion versus control (rat hepatocytes [4]): eventually increased to similar levels as the control group within 10 days
